What all share (format): functional, cell-based
Common to all, as to settings: Homo sapiens

In one experiment the test system is NCI-H460. In words: Antiproliferative activity against NCI-H460 cell line by MTS assay. In general terms: Formazan colour is commonly taken as a measure of viable cells.
The subject of the next experiment is A549. As to the kind of experiment: Antiproliferative activity against A549 cell line by MTS assay.
Another experiment deals with HT-29. In words: Antiproliferative activity against HT29 cell line by MTS assay.
A further experiment relates to DLD-1. In words: Antiproliferative activity against DLD1 cell line by MTS assay.
The next experiment has as its system MDA-MB-231. In words: Antiproliferative activity against MDA-MB-231 cell line by MTS assay.

The results in this text go back to ChEMBL document CHEMBL1138112, “Indoloprodigiosins from the C-10 bipyrrolic precursor: new antiproliferative prodigiosin analogs” (Bioorg Med Chem Lett, 2006).

As to `COc1cc(-c2ccc[nH]2)[nH]c1/C=C1\C(C)=Nc2ccccc21`, the IC50 with NCI-H460 amounted to 21.6 µM; with A549 it was 54.6 µM; in the experiment on HT-29, 36.2 µM; with DLD-1, 63.2 µM; in the experiment with MDA-MB-231 it was 47.4 µM.

Turning to `COc1cc(-c2ccc[nH]2)[nH]c1/C=C1\C(C)=Nc2ccc(C)cc21`, the IC50 was 10.8 µM with NCI-H460; 14.3 µM with A549; 12.3 µM in the experiment with HT-29; 16.7 µM in the experiment on DLD-1; 23.2 µM with MDA-MB-231.

For the molecule `COc1cc(-c2ccc[nH]2)[nH]c1/C=C1/C=C2CCCCC2=N1`, the IC50 was determined as 0.23 µM in the experiment on NCI-H460; 0.487 µM with A549; 0.781 µM in the experiment on HT-29; 0.446 µM in the experiment with DLD-1; 1.38 µM in the experiment with MDA-MB-231.

On to `COC1=CC(c2ccc[nH]2)=N/C1=C\c1[nH]c(-c2ccc[nH]2)cc1OC`, for which the IC50 in the experiment with NCI-H460 turned out to be 3.45 µM; with A549, 6.45 µM; in the experiment with HT-29, 13.5 µM; in the experiment with DLD-1, 7.74 µM; in the experiment on MDA-MB-231 it was 12.8 µM.

As for `COc1cc(-c2ccc[nH]2)[nH]c1/C=C1\C=Nc2ccccc21`, the IC50 with NCI-H460 was 4.06 µM; with A549, 6.61 µM; in the experiment on HT-29 it was 4.68 µM; in the experiment with DLD-1 it was 6.02 µM; with MDA-MB-231, 9.35 µM.

`CCC1CCCCCCCCC2=N/C(=C\c3[nH]c(-c4ccc[nH]4)cc3OC)C1=C2` (stereo not given) [METACYCLOPRODIGININE]: the IC50 stood at 0.33 µM in the experiment with NCI-H460; 1.25 µM in the experiment on A549; 1.7 µM with HT-29; 1.78 µM in the experiment with DLD-1; 5.21 µM with MDA-MB-231.

Turning to `CCCCCC1=C/C(=C/c2[nH]c(-c3ccc[nH]3)cc2OC)N=C1C` [PRODIGIOSIN], the IC50 in the experiment on NCI-H460 stood at 0.032 µM; with A549 it was 0.077 µM; with HT-29, 0.173 µM; in the experiment on DLD-1 it was 0.079 µM; with MDA-MB-231 it was 0.213 µM.

Broadly, the IC50 is the point on the concentration scale where inhibition reaches its midpoint. A lower IC50 goes with greater potency in that assay.
